From patent publication US9624214B2, “Amino-substituted imidazo[1,2-a]pyridinecarboxamides and their use” (BAYER PHARMA AKTIENGESELLSCHAFT, priority 2012, dated 2017)
Counter-ions that a name gives are not always drawn.

Each molecule was assayed against T1, recombinant guanylate cyclase reporter cell line (Rattus norvegicus, UniProt P19686+P20595) (assay: B-2. Action on recombinant guanylate cyclase reporter cell line). Conditions: MEC = minimal effective concentration; in some cases mean values from individual determinations.
T1 construct: expressed in transfected cells
T1 sequence (P20595 1-619): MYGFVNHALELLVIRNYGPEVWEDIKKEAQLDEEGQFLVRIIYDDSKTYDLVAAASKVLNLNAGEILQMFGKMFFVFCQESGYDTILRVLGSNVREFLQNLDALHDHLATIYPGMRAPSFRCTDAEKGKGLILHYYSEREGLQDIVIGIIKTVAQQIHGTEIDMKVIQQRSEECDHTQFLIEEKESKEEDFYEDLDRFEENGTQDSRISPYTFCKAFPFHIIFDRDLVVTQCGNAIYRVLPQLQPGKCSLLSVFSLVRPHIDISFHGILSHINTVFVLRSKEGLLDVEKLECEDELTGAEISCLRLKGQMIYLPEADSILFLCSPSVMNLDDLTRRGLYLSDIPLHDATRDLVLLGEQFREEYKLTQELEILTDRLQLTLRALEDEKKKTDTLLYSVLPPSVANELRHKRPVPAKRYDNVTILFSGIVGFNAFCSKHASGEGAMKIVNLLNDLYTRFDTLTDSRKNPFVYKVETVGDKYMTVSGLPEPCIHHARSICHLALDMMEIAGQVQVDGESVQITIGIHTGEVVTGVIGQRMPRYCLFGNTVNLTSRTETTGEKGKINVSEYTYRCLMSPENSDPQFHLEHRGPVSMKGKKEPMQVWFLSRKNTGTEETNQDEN
T1 sequence (P19686 1-690): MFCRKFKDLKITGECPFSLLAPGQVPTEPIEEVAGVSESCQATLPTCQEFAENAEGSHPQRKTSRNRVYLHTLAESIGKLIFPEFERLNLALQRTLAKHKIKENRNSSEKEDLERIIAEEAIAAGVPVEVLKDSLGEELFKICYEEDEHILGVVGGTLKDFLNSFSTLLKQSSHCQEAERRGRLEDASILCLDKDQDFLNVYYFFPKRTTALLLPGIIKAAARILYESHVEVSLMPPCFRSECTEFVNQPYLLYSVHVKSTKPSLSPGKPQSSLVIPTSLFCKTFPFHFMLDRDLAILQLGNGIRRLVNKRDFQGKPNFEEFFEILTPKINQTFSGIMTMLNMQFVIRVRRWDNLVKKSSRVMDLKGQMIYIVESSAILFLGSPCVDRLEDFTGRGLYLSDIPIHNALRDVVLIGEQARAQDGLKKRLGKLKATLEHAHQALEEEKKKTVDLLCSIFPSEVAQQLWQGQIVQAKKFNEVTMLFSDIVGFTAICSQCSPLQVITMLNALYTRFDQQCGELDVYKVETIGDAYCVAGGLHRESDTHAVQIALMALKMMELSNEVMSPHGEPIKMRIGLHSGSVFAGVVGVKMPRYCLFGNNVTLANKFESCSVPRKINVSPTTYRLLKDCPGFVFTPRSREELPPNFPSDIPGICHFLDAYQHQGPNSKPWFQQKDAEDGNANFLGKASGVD
Assay type: cell-based
In short: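 MEC values, meaning the lowest concentration producing a detectable response, were taken from a recombinant cyclase reporter cell assay. Where repeated, individual determinations were averaged.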

SMILES | MEC
CCCC(C)(N)CNC(=O)c1c(C)nc2c(OCc3c(F)cccc3F)cc(OC)cn12 (single isomer, unassigned; enantiomer b) [Example 278, ent-N-(2-amino-2-methylpentyl)-8-[(2,6-difluorobenzyl)oxy]-6-methoxy-2-methylimidazo[1,2-a]pyridine-3-carboxamide (Enantiomer B)] | 0.3 µM
CCCC(C)(N)CNC(=O)c1c(C)nc2c(OCc3c(F)cccc3F)cc(N3CCOCC3)cn12 (single isomer, unassigned; enantiomer b) [Example 280, ent-N-(2-amino-2-methylpentyl)-8-[(2,6-difluorobenzyl)oxy]-2-methyl-6-(morpholin-4-yl)imidazo[1,2-a]pyridine-3-carboxamide (Enantiomer B)] | 0.65 µM
CCCC(C)(N)CNC(=O)c1c(C)nc2c(OCc3c(F)cccc3F)cc(C3CC3)cn12 (single isomer, unassigned; enantiomer b) [Example 281, ent-N-(2-amino-2-methylpentyl)-6-cyclopropyl-8-[(2,6-difluorobenzyl)oxy]-2-methylimidazo[1,2-a]pyridine-3-carboxamide (Enantiomer B)] | 0.3 µM
Cc1cc(OCc2c(F)cccc2F)c2nc(C)c(C(=O)NCC(C)(N)CF)n2c1 (single isomer, unassigned; enantiomer b) [Example 284, ent-N-(2-amino-3-fluoro-2-methylpropyl)-8-[(2,6-difluorobenzyl)oxy]-2,6-dimethylimidazo[1,2-a]pyridine-3-carboxamide (Enantiomer B)] | 0.1 µM
Cc1cc(OCc2c(F)ccc(F)c2F)c2nc(C)c(C(=O)NCC(C)(N)CF)n2c1 (single isomer, unassigned; enantiomer b) [Example 286, ent-N-(2-amino-3-fluoro-2-methylpropyl)-2,6-dimethyl-8-[(2,3,6-trifluorobenzyl)oxy]imidazo[1,2-a]pyridine-3-carboxamide (Enantiomer B)] | 0.1 µM
CCCC(C)(N)CNC(=O)c1c(C)nc2c(OCc3c(F)cccc3F)cc(C(F)F)cn12 (single isomer, unassigned; enantiomer b) [Example 289, ent-N-(2-amino-2-methylpentyl)-8-[(2,6-difluorobenzyl)oxy]-6-(difluoromethyl)-2-methylimidazo[1,2-a]pyridine-3-carboxamide Formate (Enantiomer B)] | 0.3 µM
CCCC(C)(N)CNC(=O)c1c(C)nc2c(OCc3c(F)cccc3F)cc(C(F)F)cn12 (single isomer, unassigned; enantiomer b) [Example 290, ent-N-(2-amino-2-methylpentyl)-8-[(2,6-difluorobenzyl)oxy]-6-(difluoromethyl)-2-methylimidazo[1,2-a]pyridine-3-carboxamide (Enantiomer B)] | 0.3 µM
Cc1nc2c(OCc3c(F)cccc3F)cc(C(F)F)cn2c1C(=O)NCC(C)(N)CF (single isomer, unassigned; enantiomer b) [Example 292, ent-N-(2-amino-3-fluoro-2-methylpropyl)-8-[(2,6-difluorobenzyl)oxy]-6-(difluoromethyl)-2-methylimidazo[1,2-a]pyridine-3-carboxamide (Enantiomer B)] | 0.03 µM
Cc1cc(OCc2c(F)cccc2F)c2nc(C)c(C(=O)NC3CCC3N)n2c1 (single isomer, unassigned; enantiomer b) [Example 329, ent-N-(2-aminocyclobutyl)-8-[(2,6-difluorobenzyl)oxy]-2,6-dimethylimidazo[1,2-a]pyridine-3-carboxamide (Enantiomer B)] | 0.30 µM
Cc1cc(OCc2c(F)cccc2F)c2nc(C)c(C(=O)NC3CCC3(C)N)n2c1 (single isomer, unassigned; enantiomer b) [Example 333, ent-N-[2-amino-2-methylcyclobutyl]-8-[(2,6-difluorobenzyl)oxy]-2,6-dimethylimidazo[1,2-a]pyridine-3-carboxamide (Enantiomer B)] | 1.00 µM
Cc1cc(OCc2c(F)cccc2F)c2nc(C)c(C(=O)NC3(C)CCC3(C)N)n2c1 (single isomer, unassigned; enantiomer b) [Example 337, ent-N-[(2-amino-1,2-dimethylcyclobutyl]-8-[(2,6-difluorobenzyl)oxy]-2,6-dimethylimidazo[1,2-a]pyridine-3-carboxamide (Enantiomer B)] | 0.55 µM
Cc1cc(OCc2c(F)cccc2F)c2nc(C)c(C(=O)NCC(N)C#N)n2c1 (single isomer, unassigned; enantiomer b) [Example 402, ent-N-(2-amino-2-cyanoethyl)-8-[(2,6-difluorobenzyl)oxy]-2,6-dimethylimidazo[1,2-a]pyridine-3-carboxamide (Enantiomer B)] | 0.30 µM
Cc1cc(OCc2c(F)cccc2F)c2nc(C)c(C(=O)NCC(C)(N)CCC(F)(F)F)n2c1 (single isomer, unassigned; enantiomer b) [Example 409, ent-N-(2-amino-5,5,5-trifluoro-2-methylpentyl)-8-[(2,6-difluorobenzyl)oxy]-2,6-dimethylimidazo[1,2-a]pyridine-3-carboxamide (Enantiomer B)] | 0.03 µM
Cc1cc(OCc2c(F)ccc(F)c2F)c2nc(C)c(C(=O)NCC(C)(N)CCC(F)(F)F)n2c1 (single isomer, unassigned; enantiomer b) [Example 411, ent-N-(2-amino-5,5,5-trifluoro-2-methylpentyl)-2,6-dimethyl-8-[(2,3,6-trifluorobenzyl)oxy]imidazo[1,2-a]pyridine-3-carboxamide (Enantiomer B)] | 0.03 µM
Cc1nc2c(OCc3c(F)cccc3F)cc(Cl)cn2c1C(=O)NC1CNCc2ccccc21 (single isomer, unassigned; ent-6) [Example 107, ent-6-chloro-8-[(2,6-difluorobenzyl)oxy]-2-methyl-N-(1,2,3,4-tetrahydroisoquinolin-4-yl)imidazo[1,2-a]pyridine-3-carboxamide] | 0.30 µM
Cc1nc2c(OCc3c(F)cccc3F)cc(Cl)cn2c1C(=O)NC1CNCc2ccccc21 (single isomer, unassigned; ent-6) [Example 108, ent-6-chloro-8-[(2,6-difluorobenzyl)oxy]-2-methyl-N-(1,2,3,4-tetrahydroisoquinolin-4-yl)imidazo[1,2-a]pyridine-3-carboxamide] | 1.00 µM
Cc1nc2c(OCc3c(F)cccc3F)cc(Cl)cn2c1C(=O)NCC1CCCCN1 (single isomer, unassigned; ent-6) [Example 190, ent-6-Chloro-8-[(2,6-difluorobenzyl)oxy]-2-methyl-N-(piperidin-2-ylmethyl)imidazo[1,2-a]-pyridine-3-carboxamide] | 1.00 µM
Cc1nc2c(OCc3c(F)cccc3F)cc(Cl)cn2c1C(=O)NCC1CCCCN1 (single isomer, unassigned; ent-6) [Example 191, ent-6-Chloro-8-[(2,6-difluorobenzyl)oxy]-2-methyl-N-(piperidin-2-ylmethyl)imidazo[1,2-a]-pyridine-3-carboxamide] | 1.00 µM
Cc1nc2c(OCc3c(F)cccc3F)cccn2c1C(=O)NC1CNc2ccccc21 (single isomer, unassigned; ent-8) [Example 47, ent-8-[(2,6-Difluorobenzyl)oxy]-N-(2,3-dihydro-1H-indol-3-yl)-2-methylimidazo[1,2-a]pyridine-3-carboxamide] | 0.30 µM
